Data as given in patent EP1552850A2, “A combination of FBPase inhibitors and insulin sensitizers for the treatment of diabetes” (priority 1998, dated 2000).

Assays:
[1] = Hepatic and plasma drug metabolite levels after Compound A p.o. in rats; format: in vivo, SpragueDawley rats; settings: after Compound A 250 mg/kg by oral gavage; 8 hours sampling
Procedure: Compound A was administered by oral gavage to freely-feeding SpragueDawley rats (250-300g). The compound was prepared as a suspension in carboxymethylcellulose, and administered at a dose of 250 mg/kg. For the determination of liver metabolites, rats were serially sacrificed over the course of 24 hours after drug administration. Livers were freeze-clamped, homogenized in perchloric acid, neutralized, and then analyzed for Compound B by anion exchange HPLC.
For the determination of plasma metabolites, rats were instrumented with carotid catheters prior to oral dosing. Blood samples were withdrawn via the catheters at appropriate time points over the course of 8 hours post drug administration. Plasma was prepared from the blood samples by centrifugation, and plasma protein precipitated by the addition of methanol to 60%. Compound A metabolites were quantitated by reverse phase HPLC in the deproteinated plasma samples. A C18 column (1.4 cm X 250 mm) was equilibrated with 10 mM sodium phosphate, pH 5.5 and eluted with a gradient from this buffer to acetonitrile. Detection was at 254 nm.

Rat Hepatocytes = experiment: Inhibition of Glucose Production and Elevation of Fructose-1,6-Bisphosphate Levels in Rat Hepatocytes; format: cell-based
Procedure: Hepatocytes were prepared from fed Sprague-Dawley rats (250-300 g) according to the procedure of Berry and Friend (Berry, M.N., Friend, D.S., 1969, J. Cell. Biol. 43, 506-520) as modified by Groen (Groen, A.K., Sips, H.J., Vervoom, R.C., Tager, J.M. , 1982, Eur. J. Biochem. 122, 87-93). Hepatocytes (75 mg wet weight/ml) were incubated in 1 ml Krebs-bicarbonate buffer containing 10 mM Lactate, 1 mM pyruvate, 1 mg/ml BSA, and test compound concentrations from 0 to 500 µM. Incubations were carried out in a 95% oxygen, 5% carbon dioxide atmosphere in closed, 50-ml Falcon tubes submerged in a rapidly shaking water bath (37°C). After 1 hour, an aliquot (0.25 ml) was removed, transferred to an Eppendorf tube and centrifuged. 50 µl of supernatant was then assayed for glucose content using a Sigma Glucose Oxidase kit as per the manufacturer's instructions.
Rat hepatocytes were isolated and incubated as described in Example C. Cell extracts, were analyzed for glucose content as described in Example C, and also for fructose 1,6-bisphosphate. Fructose 1,6-bisphosphate was assayed spectrophotometrically by coupling its enzymatic conversion to glycerol 3-phosphate to the oxidation of NADH, which was monitored at 340 nm. […] After a 30 minute preincubation at 37°C, 1 unit/mi of aldolase was added and the change in absorbance measured until a stable value was obtained. […]

[2] = Oral Bioavailability Determination (urinary excretion method); format: in vivo, Sprague Dawley rats; settings: rat, oral 10-40 mg/kg vs intravenous parent, 24 hours urine
Procedure: The oral bioavailability of prodrugs and parent compounds was determined by the urinary excretion method in the rat. Prodrugs were dissolved in 10% ethanol/90% polyethylene glycol (mw 400) and administered by oral gavage at doses of 10 to 40 mg/kg parent compound equivalents to 6-hour fasted, Sprague Dawley rats (220-240 g). Parent compounds were typically dissolved in deionized water, neutralized with sodium hydroxide, and then administered orally at 10-40 mg/kg or intravenously at ~10 mg/kg. The rats were subsequently placed in metabolic cages and urine was collected for 24 hours. The quantity of parent compound excreted into urine was determined by HPLC analysis as described in Example F. Analysis was performed as described in Example F. For prodrugs, the percentage oral bioavailability was estimated by comparison of the recovery in urine of the parent compound generated from the prodrug administered orally, to that recovered in urine following intravenous administration of the corresponding parent compound. For parent compounds, the percentage oral bioavailability was estimated by comparison of the recovery in urine of the parent compound when administered orally to that recovered when administered intravenously.

ZDF rat [3] = settings: in vivo
Procedure: At 11 weeks of age, animals with blood glucose >500 mg/dl were selected and divided into 4 treatment groups (n=8/group). […] Values are expressed as the mean plus or minus the standard error of the mean. Differences between groups were evaluated by analysis of variance with the Tukey-Kramer post hoc test.
Plasma was prepared by centrifugation and triglyceride levels then measured by means of a standard assay kit according to the instructions of the manufacturer (Sigma Chemical Company). Differences between groups were evaluated by analysis of variance with the Tukey-Kramer post hoc test. Results are considered significant with p<0.05.

ZDF rat [4] = experiment: Combination treatment with Troglitazone and Compound G or Compound J in the ZDF rat - blood glucose; format: in vivo, Zucker Diabetic Fatty (ZDF) rat; settings: for Blood Glucose, Day 0: baseline
Procedure: At 11 weeks of age, animals with blood glucose >500 mg/dl were selected and divided into 4 treatment groups (n=8/group). […] Blood glucose levels were measured in tail vein samples by means of a HemoCue glucose analyzer (HemoCue Inc., Mission Viejo, CA). Values are expressed as the mean plus or minus the standard error of the mean. Differences between groups were evaluated by analysis of variance with the Tukey-Kramer post hoc test.

db/db Mouse = experiment: Combination treatment with Troglitazone and Compound G in the db/db mouse - blood glucose; settings: db/db mice, baseline
Procedure: Male db/db mice were purchased at 8 weeks of age from Jackson Labs (Bar Harbor, Maine). […] At 10 weeks of age, animals with blood glucose >400 mg/dl and <900 mg/dl were selected and divided into 4 treatment groups (n=5-6/group). […] Treatment was for 18 days. […] Blood glucose levels were measured in tail vein samples by means of a HemoCue glucose analyzer (HemoCue Inc., Mission Viejo, CA). Values are expressed as the mean plus or minus the standard error of the mean. Differences between groups were evaluated by analysis of variance with the Tukey-Kramer post hoc test. Results are considered significant with p<0.05.

type 2 diabetics = settings: clinic; cited from earlier work
[5] = Troglitazone-Compound J study, Troglitazone 0.2%, Compound J 0.4%

NC(=O)c1ncn([C@@H]2O[C@H](CO)[C@@H](O)[C@H]2O)c1Br [5-bromo-1-βD-ribofuranosyl-imidazole-carboxamide]
detection in plasma [1]: detectable

CCc1cc(F)c(N)c2nc(-c3ccc(P(=O)(O)O)o3)n(CC(C)C)c12 [Compound E]
intracellular fructose 1,6-bisphosphate (Rat Hepatocytes): dose-dependent elevation

CSc1nc(-c2ccc(P(=O)(O)O)o2)c(CC(C)C)s1 [Compound H, 2-Methylthio-5-isobutyl-4-[2-(5-phosphono)furanyl]thiazole]
Oral bioavailability, % [2]: 4%

CCOC(=O)[C@H](C)NP(=O)(N[C@@H](C)C(=O)OCC)c1ccc(-c2nc(N)sc2CC(C)C)o1 [Compound J, 2-Amino-5-isobutyl-4-{2-[5-(N,N'-bis((S)-1-ethoxycarbonyl)ethyl)phosphonamido]furanyl}thiazole]
elevation of plasma triglycerides (ZDF rat [3]): ~2 fold | Blood Glucose, Day 0 (ZDF rat [4]; [5]): 674 ± 20 mg/dL | Blood Glucose, Day 21 (ZDF rat [4]; [5]): 452 ± 40 mg/dL | blood glucose lowering, pilot studies (ZDF rat [4]; ZDF rat, food admixture dose finding): trend (not significant) towards more pronounced blood glucose lowering at 0.4% than at 0.2%

Cc1c(C)c2c(c(C)c1O)CCC(C)(COc1ccc(CC3SC(=O)NC3=O)cc1)O2 (stereo not shown) [Troglitazone]
Blood Glucose, Day 0 (db/db Mouse): 710 ± 44 mg/dL | hepatotoxicity, elevation of liver enzymes (type 2 diabetics): 1 % of patients | Blood Glucose, Day 0 (ZDF rat [4]; Troglitazone-Compound G study, 0.2% food admixtures): 655 ± 33 mg/dL
